Reference: patent US20220132839A1, “MOSQUITO ATTRACTANT COMPOSITIONS” (UNIVERSITY OF WASHINGTON, priority 2019, published 2022)
“Also recorded” adds a separate entry of the source.

Tests used:
Ae. aegypti AL glomeruli = test: Two-photon calcium imaging (PUb-GCaMP6s) of the antennal lobe, Ae. aegypti; type: in vivo; details: for LC2 glomerulus response: single odorants; for glomerular responses in the AL: imaged at 40 μm depth, particularly AL3 and LC2 glomeruli for the mixture; for AM2 response with increasing dose: different concentrations; for AM2 glomerulus response: odor stimulation; for effect of GABA-receptor antagonists on AM2 response to the P. obtusata scent / effect of GABA-receptor antagonists on LC2 and AM2 responses to the P. stricta scent: 1 μM CGP54626, 10 μM picrotoxin focally applied together on to the AL; for AM2 response to lilac aldehyde/nonanal mixtures / LC2 response to lilac aldehyde/nonanal mixtures: lilac aldehyde and nonanal at different concentration ratios
Text: A total of twenty preparations were used: 10 for single odorant and orchid mixture experiments; 6 for ratio experiments; and 4 for experiments using GABA-receptor antagonists. […] The expression of GCaMP occurred in glia, local interneurons, and projection neurons. […] Thus, in the calcium imaging experiments care was taken to image from the central regions of the glomeruli and avoid the sheaths and external glomerular loci. […] Relatedly, GCaMP6s expression is very high in AL local interneurons and projection neurons (PNs), such that during odor stimulation the PNs and axonal processes can often be imaged, and 3D reconstructions can be take place through simultaneous optical sections with odor stimulation. Nonetheless, the glomerular responses were assumed to be a function of multiple cell types.
Similar to experiments with Ae. increpitus, the majority the mosquitoes were UV-glued to the stage to allow free movement of their wings and proboscis; however, for experiments using GABA-receptor antagonists the proboscis was glued to the stage for additional stability. Once the mosquito was fixed to the stage, a window in its head was cut to expose the brain, and the brain was continuously superfused with physiological saline.
Thus a provisional atlas was created with female mosquitoes (n=6) that allowed for cross-reference of the imaged glomeruli and comparison of their positions and structures to those described in the atlas. This was accomplished via clear glomerular boundaries, especially during odor stimulation, and the distinct odorant tuning of glomeruli throughout the depths of the AL (e.g., AM2 responsive to DEET; LC2 and AL3 responsive to nonanal; PD3 responsive to geosmin; and MD2 responsive to CO2) that allowed 3D registration across preparations and subsequent warping and referencing with the atlas.
Saline and pharmacological agents. The saline was made based on the Beyenbach and Masia recipe (L. B. Thien, F. Utech, The mode of pollination in Habenaria obtusata (Orchidaceae). American Journal of Botany 57, 1031-1035 (1970)) and contained 150.0 mM NaCl, 25.0 mM N-2-hydroxyethyl-piperazine-N′-2-ethanesulfonic acid (HEPES), 5.0 mM sucrose, 3.4 mM KCl, 1.8 mM NaHCO3, 1.7 mM CaCl2, and 1.0 mM MgCl2. The pH was adjusted to 7 with 1 M NaOH. […] […] A drip system comprising two 100 mL reservoirs—one containing the GABA receptor antagonists, and the other saline—converged on the two-channel temperature controller to facilitate rapid switching from normal physiological saline solution to the antagonists and back. Antagonists were superfused directly into the holder near to the opening of the head capsule and recorded neuropil. The odor-evoked responses were first recorded under normal physiological saline solution and then repeated under GABA receptor antagonists diluted in normal saline solution, and finally the normal saline wash. All calcium imaging data were statistically analyzed using Kruskal-Wallis tests with multiple comparisons and visualized using Principal Components Analysis. Analyses were performed in Matlab (v2017; Mathworks, Natick, Mass.).
Olfactory stimuli were delivered to the mosquito by pulses of air diverted through a 2 mL cartridge containing a piece of filter paper bearing the odor stimulus (2 An air line provided gentle and constant charcoal-filtered air at 1 m/s to the antennae allowing continuous ventilation to prevent adaptation of the olfactory receptor cells. The stimulus output was positioned in the air line 2 cm from and orthogonal to the mosquito antennae. For testing different ratios of lilac aldehyde and nonanal, two syringes bearing different concentrations of the odorants were used and positioned such that the outputs were positioned in the same location in the air stream. […]

[1] = tested on: Ae. increpitus mosquito antennal lobe (AL) glomeruli; test: Two-photon calcium imaging (Fluo4) of the antennal lobe, Ae. increpitus; type: in vivo; details: for LC2 glomerulus response: single odorants
Method: Odor-evoked responses in the Ae. increpitus mosquito antennal lobe (AL) with nine female mosquitoes at the beginning of the season when mosquitoes were relatively young (as defined by wing and scale appearance). Calcium imaging experiments were conducted using application of the calcium indicator Fluo4 to the mosquito brain and using a stage that allows simultaneous calcium imaging and tethered flight. The mosquito was cooled on ice and transferred to a Peltier-cooled holder that enables the mosquito to head to be fixed to the stage using ultraviolet glue. The custom stage permits the superfusion of saline to the head capsule and space for movement by the wings and proboscis. Once the mosquito was fixed to the stage, a window in its head was cut to expose the brain, and the brain was continuously superfused with physiological saline. Next, the perineural sheath was gently removed from the AL using fine forceps and 75 μL of the Fluo4 solution—made by […] of Fluo4 in 30 μL Pluronic F-127 and then subsequently diluted in 950 μL of mosquito physiological saline—was pipetted to the holder allowing the brain to be completely immersed in the dye. Mosquitoes were kept in the dark at 15° C. for 1.5 h (the appropriate time for adequate penetration of the dye into the tissue), after which the brain was washed 3 times with physiological saline. After the rinse, mosquitoes were kept in the dark at room temperature for approximately 10-20 min. before imaging.
Wing stroke amplitudes were acquired and analyzed using a custom camera-based computer vision system at frame rates of 100 Hz, where the mosquito was illuminated with infrared LEDs (880 nm) and images were collected with an infrared-sensitive camera synched to the two-photon system. Stimulus-evoked initiation of flight and changes in the amplitude of the wing-stroke envelope were characterized for each odor stimulus. Calcium-evoked responses in the AL were imaged using the Prairie Ultima IV two-photon excitation microscope (Prairie Technologies) and Ti-Sapphire laser (Chameleon Ultra; Coherent). Experiments were performed at a depth of 40 μm from the ventral surface of the AL, allowing the calcium dynamics from approximately 18-22 glomeruli to be repeatedly imaged across preparations. Images were collected at 2 Hz, and for each odor stimulus images were acquired for 35 s, starting 10 s before the stimulus onset. Imaging data were extracted in Fiji/ImageJ and imported into Matlab (v2017; Mathworks, Natick, Mass.) for Gaussian filtering (2×2 pixel; σ=1.5-3) and alignment using a single frame as the reference at a given imaging depth and subsequently registered to every frame to within ¼ pixel. Trigger-averaged ΔF/F was used for comparing glomerular responses between odor stimuli. […]

Aedes mosquitoes = test: GC-EAD antennal responses, Aedes mosquitoes from the field
Text: (§1) Electroantennogram signals were filtered and amplified (100×; 0.1-500 Hz) using an A-M 1800 amplifier (Sequim, Wash., USA) connected to a personal computer via a BNC-2090A analog-to-digital board (National Instruments, Austin, Tex., USA) and digitized at 20 Hz using WinEDR software (Strathclyde Electrophysiology Software, Glasgow, UK). A Hum Bug noise eliminator (Quest Scientific, Vancouver, Canada) was used to decrease electrical noise. The antennal responses to peaks eluting from the GC were measured for each mosquito preparation, and each peak and mosquito species. Bioactive peaks were those that elicited strong EAD responses, corresponding to deflections beyond the average noise floor of the baseline EAD signal. Responses by each individual preparation were used for Principal Component Analysis (Ade4 package, R). The responses of eight different mosquito species were tested to the scent extracts of three orchid species (n=8 mosquito species for P. obtusata; n=4 mosquito species each for P. stricta and P. huronensis; with 3-17 replicates per mosquito species per orchid, for a total of 109 GC-EAD experiments).
Individual mosquitoes were isolated in Falcon™ tubes (Thermo Fisher Scientific, Pittsburgh, Pa., USA) covered with a piece of fine mesh. They were maintained in a climatic chamber, as previously described, and identified immediately before running the experiment. Carbon dioxide delivered through a pad (Genesee Scientific, San Diego, Calif., USA) was used to briefly anesthetize mosquitoes before transferring them on ice for the dissection. The head was excised and the tip (i.e., one segment) of each antenna was cut off with fine scissors under a binocular microscope (Carl Zeiss, Oberkochen, Germany). The head was then mounted on an electrode composed of a silver wire 0.01″ (A-M Systems, Carlsbord, Wash., USA) and a borosilicate pulled capillary (Sutter Instrument Company, Novato, Calif., USA) filled with a 1:3 mix of saline (L. B. Thien, F. Utech, The mode of pollination in Habenaria obtusata (Orchidaceae). American Journal of Botany 57, 1031-1035 (1970) and electrode gel (Parker Laboratories, Fairfield, N.J., USA) in order to avoid the preparation to desiccate during the experiment. The head was mounted by the neck on the reference electrode. The preparation was then moved to the GC-EAD with the tips of the antennae inserted under the microscope (Optiphot-2, Nikon, Tokyo, Japan) into a recording electrode, that was identical to the reference electrode. The mounted antennae were oriented at 90° from the main airline which was carrying filtered air (Praxair, Danbury, Conn., USA) and volatiles eluting from the Gas-Chromatograph to the preparation via a 200° C. transfer line (EC-05; Syntech GmbH, Buchenbach, Germany). Five microliters of the orchid extract were injected into the Gas Chromatograph with Flame Ionization Detection (Agilent 7820A GC, Agilent Technologies; DB5 column, J&W Scientific, Folsom, Calif., USA). The oven program was the same as the one used for the GC-MS analyses of the scent extracts. The transfer line from the GC to the preparation was set to 200° C.

Culiseta mosquitoes = test: GC-EAD antennal responses, Culiseta mosquitoes; parameters: species or system Culiseta sp.; details: peaks of the P. obtusata scent
Text: as §1
Individual mosquitoes were isolated in Falcon™ tubes (Thermo Fisher Scientific, Pittsburgh, Pa., USA) covered with a piece of fine mesh. They were maintained in a climatic chamber, as previously described, and identified immediately before running the experiment. […]

[2] = scents of P. stricta and P. huronensis, Ae. increpitus, Ae. communis, Ae. canadensis and Culiseta sp.
[3] = odorant tuning used for glomerular registration

CCCCCCCCO [1-octanol]
LC2 glomerulus response (Ae. aegypti AL glomeruli): strongest response
LC2 glomerulus response [1]: strongest response

C=C1C2CCC(C2)C1(C)C (centres unmarked) [camphene]
antennal responses (GC-EAD) (Aedes mosquitoes; peaks of the P. obtusata scent): evoked antennal responses

CCCCCCCC=O [octanal]
glomerular responses in the AL (Ae. aegypti AL glomeruli): strong responses
LC2 glomerulus response (Ae. aegypti AL glomeruli): strongest response
antennal responses (GC-EAD) (Aedes mosquitoes; peaks of the P. obtusata scent): evoked antennal responses
LC2 glomerulus response [1]: strongest response

CCN(CC)C(=O)c1cccc(C)c1 [DEET, N,N-diethyl-meta-toluamide, reference compound]
AM2 response with increasing dose (Ae. aegypti AL glomeruli): significant increases in response with increasing dose
AM2 glomerulus response (Ae. aegypti AL glomeruli): responsive

C=CC(=C)CCC=C(C)C [β-myrcene]
antennal responses (GC-EAD) (Aedes mosquitoes; [2]): all responded

picrotoxin [reference compound]
effect of GABA-receptor antagonists on AM2 response to the P. obtusata scent (Ae. aegypti AL glomeruli): the effect of nonanal was blocked
effect of GABA-receptor antagonists on LC2 and AM2 responses to the P. stricta scent (Ae. aegypti AL glomeruli): blocked the symmetrical inhibition by nonanal and lilac aldehyde

C=C1CCC2CC1C2(C)C (stereo not drawn) [β-pinene]
antennal responses (GC-EAD) (Aedes mosquitoes; peaks of the P. obtusata scent): evoked antennal responses

CC1CCCC2(C)CCCCC12O (centres unmarked) [geosmin, reference compound]
PD3 glomerulus response (Ae. aegypti AL glomeruli; [3]): responsive

C=CC1(C)CCC(C(C)C=O)O1 (centres unmarked) [lilac aldehyde, 5-dimethyl-5-ethenyl-2-tetrahydrofuranacetaldehydes]
AM2 response with increasing dose (Ae. aegypti AL glomeruli): significant increases in response with increasing dose
glomerular responses in the AL (Ae. aegypti AL glomeruli): strong responses
AM2 response to lilac aldehyde/nonanal mixtures (Ae. aegypti AL glomeruli): increased AM2 activation
LC2 response to lilac aldehyde/nonanal mixtures (Ae. aegypti AL glomeruli): suppressed the response of LC2 to nonanal
AM2 glomerulus response to orchid mixtures (Ae. aegypti AL glomeruli; mixtures with lilac aldehyde scaled to other Platanthera species, compared with P. obtusata, Kruskal-Wallis p<0.05): significant increase in AM2 responses
LC2 glomerulus response to orchid mixtures (Ae. aegypti AL glomeruli; mixtures with lilac aldehyde scaled to other Platanthera species, nonanal as in the P. obtusata mixture, Kruskal-Wallis p<0.05): significant suppression of LC2 response
AM2 glomerulus response (Ae. aegypti AL glomeruli): strongest response; also recorded: responsive
antennal responses (GC-EAD) (Aedes mosquitoes; high concentration in the scent of P. stricta, lesser in P. huronensis, antennae of Ae. increpitus and Ae. communis): relatively strong responses
antennal responses (GC-EAD) (Aedes mosquitoes; peaks of the P. obtusata scent): evoked antennal responses
antennal responses (GC-EAD) (Aedes mosquitoes; [2]): all responded

C[C@H](NC[C@H](O)CP(=O)(O)CC1CCCCC1)c1ccc(Cl)c(Cl)c1 [CGP54626, reference compound]
effect of GABA-receptor antagonists on AM2 response to the P. obtusata scent (Ae. aegypti AL glomeruli): the effect of nonanal was blocked
effect of GABA-receptor antagonists on LC2 and AM2 responses to the P. stricta scent (Ae. aegypti AL glomeruli): blocked the symmetrical inhibition by nonanal and lilac aldehyde

CCCCCCCCC=O [nonanal]
glomerular responses in the AL (Ae. aegypti AL glomeruli): strong responses
AM2 response to lilac aldehyde/nonanal mixtures (Ae. aegypti AL glomeruli): caused suppression of AM2 responses to lilac aldehyde
LC2 response to lilac aldehyde/nonanal mixtures (Ae. aegypti AL glomeruli): increasing the activation of LC2
AM2 glomerulus response (Ae. aegypti AL glomeruli): often exhibited inhibition
AL3 glomerulus response (Ae. aegypti AL glomeruli; [3]): responsive
LC2 glomerulus response (Ae. aegypti AL glomeruli): responsive; also recorded: strongest response
antennal responses (GC-EAD) (Aedes mosquitoes; peaks of the P. obtusata scent): evoked antennal responses; also recorded: consistent responses and one of the strongest relative responses
antennal responses (GC-EAD) (Aedes mosquitoes; [2]): all responded
AM2 glomerulus response ([1]; odor stimulation): often exhibited inhibition
LC2 glomerulus response [1]: strongest response
antennal responses (GC-EAD) (Culiseta mosquitoes): very little response

O=Cc1ccccc1 [benzaldehyde]
antennal responses (GC-EAD) (Aedes mosquitoes; [2]): all responded

CC1=CCC2CC1C2(C)C (stereo not drawn) [α-pinene]
antennal responses (GC-EAD) (Aedes mosquitoes; peaks of the P. obtusata scent): evoked antennal responses

O=C=O [CO2, reference compound]
MD2 glomerulus response (Ae. aegypti AL glomeruli; [3]): responsive

C=CC(C)(O)CCC=C(C)C (racemic) [linalool]
antennal responses (GC-EAD) (Aedes mosquitoes; [2]): all responded
